Drawing on US12208088B2 (Genentech, Inc., priority 2018, dated 2025), this text covers Ki for 21 compounds.

A word on the Ki: it is a measure of affinity in units of concentration, obtained from inhibition or displacement. A high value points to lower affinity.

Sequence of HPK1 (Q92918 1-346 limits assumed): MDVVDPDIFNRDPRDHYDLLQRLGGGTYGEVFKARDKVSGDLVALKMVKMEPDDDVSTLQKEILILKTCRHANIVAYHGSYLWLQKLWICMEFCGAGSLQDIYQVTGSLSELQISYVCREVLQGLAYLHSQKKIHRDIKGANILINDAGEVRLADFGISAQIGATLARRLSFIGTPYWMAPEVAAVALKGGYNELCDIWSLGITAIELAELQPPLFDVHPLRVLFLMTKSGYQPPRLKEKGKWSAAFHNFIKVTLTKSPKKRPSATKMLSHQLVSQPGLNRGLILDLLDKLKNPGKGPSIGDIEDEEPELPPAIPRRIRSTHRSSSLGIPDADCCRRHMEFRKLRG

The target in the experiment is HPK1 (Homo sapiens (Human), UniProt Q92918). Kind of experiment: HPK1 Lantha binding assay ("Lanth"). As to conditions: binding assays; Morrison Ki fit. A digest of the protocol:
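TR-FRET binding competition using 2 nM HPK1, 2 nM Eu-anti-GST antibody and 15 nM Tracer222 at 23 °C. Compound was incubated 1 h with enzyme and antibody, then 1 h after tracer addition, with an 11-point 5-fold dilution series. Ki obtained from a Morrison fit that corrects for tracer concentration and Kd.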
In turn, `CCC[C@@H]1C[C@]12CNc1ncc(-c3ccc(N)c(C(=O)N(C)C)c3F)c(Cl)c12` (single isomer, unassigned) [Compound 197b] had a Ki of 3.64 nM.
Compound `CN(C)C(=O)c1cccc(-c2cnc3c(c2)[C@]2(CC[C@](C)(C(N)=O)C2)CN3)c1F` (single isomer, unassigned) [Compound 199a] had a Ki of 941 nM.
Next, `CN(C)C(=O)c1cccc(-c2cnc3c(c2)[C@@]2(CC[C@@](C)(C(N)=O)C2)CN3)c1F` (single isomer, unassigned) [Compound 199b]: 105 nM; `C[C@]1(C(N)=O)CC[C@@]2(CNc3ncc(-c4cccc(N5CCOCC5=O)c4F)c(Cl)c32)C1` (single isomer, unassigned) [Compound 202b]: 21.9 nM.
`CCC[C@H]1C[C@@]12CNc1ncc(-c3ccc(N)c(C(=O)N(C)C)c3F)cc12` (single isomer, unassigned) [Compound 217a] registered a Ki of 9.4 nM.
Next, `CCC[C@@H]1C[C@]12CNc1ncc(-c3ccc(N)c(C(=O)N(C)C)c3F)cc12` (single isomer, unassigned) [Compound 217b]: 9.05 nM; `CCC[C@@H]1C[C@@]12CNc1ncc(-c3ccc(N)c(C(=O)N(C)C)c3F)cc12` (single isomer, unassigned) [Compound 217c]: 67.9 nM.
`CCC[C@H]1C[C@]12CNc1ncc(-c3ccc(N)c(C(=O)N(C)C)c3F)cc12` (single isomer, unassigned) [Compound 217d] showed a Ki of 23.4 nM.
Regarding `C[C@H]1C[C@@]12CNc1ncc(-c3ccc(N)c(C(=O)N(C)C)c3F)c(Cl)c12` (single isomer, unassigned) [Compound 228a], the Ki amounted to 4.76 nM.
Turning to `C[C@@H]1C[C@]12CNc1ncc(-c3ccc(N)c(C(=O)N(C)C)c3F)c(Cl)c12` (single isomer, unassigned) [Compound 228b], affinity was put at a Ki of 1.73 nM.
As to `C[C@H](c1cnn(C)c1)N(C)C(=O)c1cccc(-c2cnc3c(c2)C2(CC2)CN3)c1F` (single isomer, unassigned) [Compound 229a], the Ki came out at 11 nM.
Next, `C[C@@H](c1cnn(C)c1)N(C)C(=O)c1cccc(-c2cnc3c(c2)C2(CC2)CN3)c1F` (single isomer, unassigned) [Compound 229b]: 13 nM; `CC(C)[C@H]1C[C@@]12CNc1ncc(-c3ccc(N)c(C(=O)N(C)C)c3F)cc12` (single isomer, unassigned) [Compound 234a]: 3.92 nM; `CC(C)[C@@H]1C[C@@]12CNc1ncc(-c3ccc(N)c(C(=O)N(C)C)c3F)cc12` (single isomer, unassigned) [Compound 234c]: 103 nM.
As to `CC(C)C1C[C@]12CNc1ncc(-c3ccc(N)c(C(=O)N(C)C)c3F)cc12` (single isomer, unassigned) [Compound 234d], the Ki is 51.9 nM.
As to `Cn1cc([C@H]2CCCCN2C(=O)c2c(N)ccc(-c3cnc4c(c3Cl)C3(CC=CC3)CN4)c2F)cn1` (single isomer, unassigned) [Compound 239a], the Ki worked out at 0.89 nM.
On to `Cn1cc([C@@H]2CCCCN2C(=O)c2c(N)ccc(-c3cnc4c(c3Cl)C3(CC=CC3)CN4)c2F)cn1` (single isomer, unassigned) [Compound 239b], for which the affinity, expressed as Ki, was 21 nM.
For the compound `Cn1cc([C@H]2CCCCN2C(=O)c2cccc(-c3cnc4c(c3Cl)C3(CC=CC3)CN4)c2F)cn1` (single isomer, unassigned) [Compound 240a], the Ki came to 3.87 nM.
To `Cn1cc([C@@H]2CCCCN2C(=O)c2cccc(-c3cnc4c(c3Cl)C3(CC=CC3)CN4)c2F)cn1` (single isomer, unassigned) [Compound 240b] belongs 112 nM; to `CC[C@H]1C[C@@]12CNc1ncc(-c3ccc(N)c(C(=O)N(C)C)c3F)cc12` (single isomer, unassigned) [Compound 243a], 5.78 nM; to `CC[C@@H]1C[C@]12CNc1ncc(-c3ccc(N)c(C(=O)N(C)C)c3F)cc12` (single isomer, unassigned) [Compound 243b], 10.4 nM.
